Experimental data published in ChEMBL document CHEMBL1671770, “Small molecule inhibition of protein depalmitoylation as a new approach towards downregulation of oncogenic Ras signalling” (Bioorg Med Chem, 2011).

Molecular target: Acyl-protein thioesterase 1 (Homo sapiens, UniProt O75608)
Experiment: Inhibition of APT1

Sequence of Acyl-protein thioesterase 1 (O75608 whole entry): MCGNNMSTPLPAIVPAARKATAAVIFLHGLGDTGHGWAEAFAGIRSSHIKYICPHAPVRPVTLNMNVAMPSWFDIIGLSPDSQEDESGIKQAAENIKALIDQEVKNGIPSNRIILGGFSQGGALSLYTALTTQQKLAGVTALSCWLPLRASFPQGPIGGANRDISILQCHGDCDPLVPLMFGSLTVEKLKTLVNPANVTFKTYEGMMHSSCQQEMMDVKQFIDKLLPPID

IC50: 670 nM
SMILES: CCCCCCCCCC[C@@H]1C(=O)O[C@H]1CCc1ccc(OC)c(OC)c1 [PALMOSTATIN B]
